Assay results as given in patent US20230278972A1, “SUBSTITUTED HALOALKYL SULFONANILIDE HERBICIDES” (FMC Corporation, priority 2020, published 2023).

Assays:
Type in all cases: in vivo
[1] = test system: Ryegrass, Italian (Italian ryegrass, Lolium multiflorum); test: Test A postemergence, Ryegrass, Italian; conditions: Postemergence, 0 to 100 scale (0 no effect, 100 complete control); for Plant response rating, Ryegrass, Italian: 125 g ai/ha, visual injury approx. 10 days; for Ryegrass, Italian plant response rating: 500 g ai/ha, visual injury vs untreated controls after approx. 10 days
How it was run: (§1)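 Formulated with a surfactant in a non-phytotoxic solvent, compounds are applied to loam–sand pots, either to bare soil immediately after seeding (preemergence) or to seedlings of 2 to 10 cm bearing one to two leaves (postemergence).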

[2] = test system: barnyardgrass (Echinochloa crus-galli); test: Test A postemergence, barnyardgrass; conditions: Postemergence, 0 to 100 scale (0 no effect, 100 complete control); for Plant response rating, Barnyardgrass: 125 g ai/ha, visual injury approx. 10 days; for Barnyardgrass plant response rating: 500 g ai/ha, visual injury vs untreated controls after approx. 10 days
How it was run: (§2)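 Directed soil spray at planting gave the preemergence treatment, while foliar application to one- to two-leaf seedlings (2–10 cm) gave the postemergence one; pots held a loam and sand mixture and chemicals were carried in a non-phytotoxic solvent with surfactant.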

kochia (Bassia scoparia) [3] = test: Test A postemergence, kochia; conditions: Postemergence, 0 to 100 scale (0 no effect, 100 complete control); for Plant response rating, Kochia: 125 g ai/ha, visual injury approx. 10 days; for Kochia plant response rating: 500 g ai/ha, visual injury vs untreated controls after approx. 10 days
How it was run: as §1

kochia (Bassia scoparia) [4] = test: Test A preemergence, kochia; conditions: Preemergence; for Kochia plant response rating: 125 g ai/ha, visual injury on 0 to 100 scale (0 no effect, 100 complete control), approximately 10 days; for Plant response rating, Kochia: 500 g ai/ha, 0 to 100 scale (0 no effect, 100 complete control)
How it was run: as §1

[5] = test system: ragweed (common ragweed, Ambrosia artemisiifolia); test: Test A postemergence, ragweed; conditions: Postemergence, 0 to 100 scale (0 no effect, 100 complete control); for Plant response rating, Ragweed: 125 g ai/ha, visual injury approx. 10 days; for Ragweed plant response rating: 500 g ai/ha, visual injury vs untreated controls after approx. 10 days
How it was run: as §1

[6] = test system: Foxtail, Giant (giant foxtail, Setaria faberi); test: Test A postemergence, Foxtail, Giant; conditions: Postemergence, 0 to 100 scale (0 no effect, 100 complete control); for Plant response rating, Foxtail, Giant: 125 g ai/ha, visual injury approx. 10 days; for Foxtail, Giant plant response rating: 500 g ai/ha, visual injury vs untreated controls after approx. 10 days
How it was run: as §1

[7] = test system: ragweed (common ragweed, Ambrosia artemisiifolia); test: Test A preemergence, ragweed; conditions: Preemergence; for Ragweed plant response rating: 125 g ai/ha, visual injury on 0 to 100 scale (0 no effect, 100 complete control), approximately 10 days; for Plant response rating, Ragweed: 500 g ai/ha, 0 to 100 scale (0 no effect, 100 complete control)
How it was run: as §1

[8] = test system: galium (catchweed bedstraw, Galium aparine); test: Test A postemergence, galium; conditions: Postemergence, 0 to 100 scale (0 no effect, 100 complete control); for Plant response rating, Galium: 125 g ai/ha, visual injury approx. 10 days; for Galium plant response rating: 500 g ai/ha, visual injury vs untreated controls after approx. 10 days
How it was run: as §2

[9] = test system: pigweed (Amaranthus retroflexus); test: Test A preemergence, pigweed; conditions: for Pigweed plant response rating: 125 g ai/ha, visual injury on 0 to 100 scale (0 no effect, 100 complete control), approximately 10 days; for Plant response rating, Pigweed: 500 g ai/ha, 0 to 100 scale (0 no effect, 100 complete control)
How it was run: as §2

[10] = test system: barnyardgrass (Echinochloa crus-galli); test: Test A preemergence, barnyardgrass; conditions: Preemergence; for Barnyardgrass plant response rating: 125 g ai/ha, visual injury on 0 to 100 scale (0 no effect, 100 complete control), approximately 10 days; for Plant response rating, Barnyardgrass: 500 g ai/ha, 0 to 100 scale (0 no effect, 100 complete control)
How it was run: as §1

corn (Zea mays) = test: Test A postemergence, corn; conditions: Postemergence, 0 to 100 scale (0 no effect, 100 complete control); for Plant response rating, Corn: 125 g ai/ha, visual injury approx. 10 days; for Corn plant response rating: 500 g ai/ha, visual injury vs untreated controls after approx. 10 days
How it was run: as §1

[11] = test system: Ryegrass, Italian (Italian ryegrass, Lolium multiflorum); test: Test A preemergence, Ryegrass, Italian; conditions: Preemergence; for Ryegrass, Italian plant response rating: 125 g ai/ha, visual injury on 0 to 100 scale (0 no effect, 100 complete control), approximately 10 days; for Plant response rating, Ryegrass, Italian: 500 g ai/ha, 0 to 100 scale (0 no effect, 100 complete control)
How it was run: as §1

[12] = test system: Foxtail, Giant (giant foxtail, Setaria faberi); test: Test A preemergence, Foxtail, Giant; conditions: Preemergence; for Foxtail, Giant plant response rating: 125 g ai/ha, visual injury on 0 to 100 scale (0 no effect, 100 complete control), approximately 10 days; for Plant response rating, Foxtail, Giant: 500 g ai/ha, 0 to 100 scale (0 no effect, 100 complete control)
How it was run: as §1

[13] = test system: pigweed (Amaranthus retroflexus); test: Test A postemergence, pigweed; conditions: Postemergence, 0 to 100 scale (0 no effect, 100 complete control); for Plant response rating, Pigweed: 125 g ai/ha, visual injury approx. 10 days; for Pigweed plant response rating: 500 g ai/ha, visual injury vs untreated controls after approx. 10 days
How it was run: as §1

[14] = test system: wheat (Triticum aestivum); test: Test A postemergence, wheat; conditions: Postemergence, 0 to 100 scale (0 no effect, 100 complete control); for Plant response rating, Wheat: 125 g ai/ha, visual injury approx. 10 days; for Wheat plant response rating: 500 g ai/ha, visual injury vs untreated controls after approx. 10 days
How it was run: as §2

[15] = test system: blackgrass (Alopecurus myosuroides); test: Test A postemergence, blackgrass; conditions: Postemergence, 0 to 100 scale (0 no effect, 100 complete control); for Plant response rating, Blackgrass: 125 g ai/ha, visual injury approx. 10 days; for Blackgrass plant response rating: 500 g ai/ha, visual injury vs untreated controls after approx. 10 days
How it was run: as §1

Compound | Plant response rating, Ryegrass, Italian [1] | Ryegrass, Italian plant response rating [1] | Plant response rating, Barnyardgrass [2] | Barnyardgrass plant response rating [2] | Plant response rating, Kochia (kochia (Bassia scoparia) [3]) | Kochia plant response rating (kochia (Bassia scoparia) [3]) | Kochia plant response rating (kochia (Bassia scoparia) [4]) | Plant response rating, Kochia (kochia (Bassia scoparia) [4]) | Ragweed plant response rating [5] | Foxtail, Giant plant response rating [6] | Plant response rating, Ragweed [7] | Galium plant response rating [8] | Plant response rating, Pigweed [9] | Plant response rating, Barnyardgrass [10] | Corn plant response rating (corn (Zea mays)) | Plant response rating, Ryegrass, Italian [11] | Plant response rating, Foxtail, Giant [12] | Pigweed plant response rating [13] | Wheat plant response rating [14] | Blackgrass plant response rating [15] | other results
Cc1cc(C)c(-c2ccnn(C)c2=O)cc1NS(=O)(=O)C(F)(F)F [Compound 80] | 70 | 80 | 70 | 90 | 40 | 70 | 80 | 80 | 90 | 90 | 90 | 90 | 90 | 90 | 80 | 90 | 100 | 70 | 80 | 100 | Plant response rating, Ragweed [5]: 90; Plant response rating, Foxtail, Giant [6]: 90; Ragweed plant response rating [7]: 70; Plant response rating, Galium [8]: 90; Pigweed plant response rating [9]: 60; Barnyardgrass plant response rating [10]: 90; Plant response rating, Corn (corn (Zea mays)): 20; Ryegrass, Italian plant response rating [11]: 90; Foxtail, Giant plant response rating [12]: 90; Plant response rating, Pigweed [13]: 70; Plant response rating, Wheat [14]: 60; Plant response rating, Blackgrass [15]: 60
COc1cc(C)c(NS(=O)(=O)C(F)(F)F)cc1-c1ccnn(C)c1=O [Compound 81] | 0 | 60 | 70 | 80 | 40 | 50 | 0 | 80 | 60 | 90 | 40 | 90 | 100 | 90 | 20 | 50 | 100 | 60 | 60 | 70 | Plant response rating, Ragweed [5]: 20; Plant response rating, Foxtail, Giant [6]: 90; Ragweed plant response rating [7]: 30; Plant response rating, Galium [8]: 80; Pigweed plant response rating [9]: 30; Barnyardgrass plant response rating [10]: 90; Plant response rating, Corn (corn (Zea mays)): 0; Ryegrass, Italian plant response rating [11]: 30; Foxtail, Giant plant response rating [12]: 100; Plant response rating, Pigweed [13]: 20; Plant response rating, Wheat [14]: 40; Plant response rating, Blackgrass [15]: 0
Cc1cc(C)c(-n2nccc(Cl)c2=O)cc1NS(=O)(=O)C(F)(F)F [Compound 82] | 0 | 0 | 60 | 20 | 0 | 0 | 70 | 90 | 30 | 50 | 20 | 10 | 80 | 80 | 40 | 40 | 60 | 40 | 0 | 0 | Plant response rating, Ragweed [5]: 0; Plant response rating, Foxtail, Giant [6]: 20; Ragweed plant response rating [7]: 0; Plant response rating, Galium [8]: 20; Pigweed plant response rating [9]: 90; Barnyardgrass plant response rating [10]: 40; Plant response rating, Corn (corn (Zea mays)): 0; Ryegrass, Italian plant response rating [11]: 20; Foxtail, Giant plant response rating [12]: 0; Plant response rating, Pigweed [13]: 0; Plant response rating, Wheat [14]: 0; Plant response rating, Blackgrass [15]: 0
Cc1cc(C)c(-n2ncccc2=O)cc1NS(=O)(=O)C(F)(F)F [Compound 83] | 0 | 0 | 20 | 70 | 0 | 20 | 60 | 70 | 60 | 40 | 20 | 80 | 90 | 80 | 30 | 50 | 80 | 50 | 0 | 0 | Plant response rating, Ragweed [5]: 10; Plant response rating, Foxtail, Giant [6]: 0; Ragweed plant response rating [7]: 0; Plant response rating, Galium [8]: 60; Pigweed plant response rating [9]: 50; Barnyardgrass plant response rating [10]: 70; Plant response rating, Corn (corn (Zea mays)): 0; Ryegrass, Italian plant response rating [11]: 30; Foxtail, Giant plant response rating [12]: 10; Plant response rating, Pigweed [13]: 40; Plant response rating, Wheat [14]: 0; Plant response rating, Blackgrass [15]: 0
Cc1cc(C)c(-n2nccc(C)c2=O)cc1NS(=O)(=O)C(F)(F)F [Compound 84] |  | 50 |  | 80 |  | 0 |  | 70 | 40 | 50 | 0 | 50 | 70 | 80 | 60 | 90 | 90 | 30 | 70 | 20 | 
